Test results from patent US20240287172A1, “PROTEIN BINDERS TO IRHOM2 EPITOPES” (SCIRHOM GMBH, priority 2019, published 2024).

Experiments:
[1] = test system: LPS-induced release of endogenous TNFα from PBMCs from healthy donors; experiment: ELISA-based TNFα release assay, LPS-induced, PBMCs from healthy donors; assay type: cell-based; conditions: Homo sapiens, PBMC; LPS 50 ng/ml, 2 hours; recombinant murine antibodies and IgG at 1 μg/ml; Batimastat at 10 μM
Procedure: (§1) In brief, on day 1, Nunc black MaxiSorp® 96-well plates (Thermo Fisher Scientific, USA) were coated overnight with 100 μl per well of mouse anti-human TNFα capture antibody (provided as part of the DuoSet ELISA kit) at 4 μg/ml TBS at 4° C. On day 2, the capture antibody solution was removed and MaxiSorp® plates were blocked with 300 μl per well of TBS, 1% BSA at room temperature for 3 hours. Meanwhile, 20,000 PBMC from healthy donors (STEMCELL Technologies, Canada) cells in 80 μl of normal growth medium were seeded in each well of Greiner CELLSTAR V-bottom 96-well plates (Thermo Fisher Scientific, USA) and pre-incubated with 20 μl per well of standard growth medium supplemented with Batimastat (BB94, Abcam, UK) at 50 μM as positive control (for a final concentration of 10 μM in the resulting 100 μl sample volume), mouse IgG antibody (Thermo Fisher Scientific, USA) at 5 μg/ml as isotype control (for a final concentration of 1 μg/ml in the resulting 100 μl sample volume) or antibodies of the invention at 5 μg/ml (for a final concentration of 1 μg/ml in the resulting 100 μl sample volume) at 37° C., 5% CO2 for 30 minutes. […] Using an infinite M1000 (Tecan Group, Switzerland) microplate reader, the fluorescence of each well was collected at an excitation wavelength of 435 nm and an emission wavelength of 555 nm.

[2] = test system: PMA-induced release of endogenous IL-6R from PBMCs from patients suffering from rheumatoid arthritis; experiment: ELISA-based IL-6R release assay, PMA-induced, PBMCs from RA-patients; assay type: cell-based; conditions: Homo sapiens, PBMC; PMA 25 ng/ml, 24 hours; chimeric antibodies (CHO) and IgG at 1 μg/ml; Batimastat at 10 μM
Procedure: as §1, with “IL-6R” for “TNFα”, “C.” for “C. On day 2, the capture antibody solution was removed and MaxiSorp® plates were blocked with 300 μl per well of TBS, 1% BSA at room temperature for 3 hours.”, “40,000” for “20,000”, “patients suffering from rheumatoid arthritis” for “healthy donors”, “minutes. In case of stimulation controls, 20 μl of standard growth medium without test articles were added.” for “minutes.”

SMILES: CNC(=O)[C@H](Cc1ccccc1)NC(=O)[C@H](CC(C)C)[C@H](CSc1cccs1)C(=O)NO [Batimastat]
- inhibition at 10 µM [1]: 99.6%
- inhibition at 10 µM [2]: 104%
